# Experiments:
# Type in all cases: cell-based
# TNFα mRNA = TNFα mRNA expression in LPS-stimulated mouse bone marrow derived macrophages (real-time PCR); settings: LPS (1 μg/ml) stimulated mouse BMDM; 1 μM Compound M1 vs 1 μM dasatinib (FIG. 2A)
# Method: Assay 2: Evaluation of mRNA Expression Levels of IL-10, TNFα, and Arginase-1 in LPS-Stimulated (1 μg/ml) Mouse Bone Marrow Derived Macrophages (BMDM).
# Mouse-Bone Marrow Cell Isolation
# • Femur bones from healthy mice were collected taking all aseptic precautions. • Bones were severed proximal to each joint using sterile scissors. • A 10 ml syringe with 25-G needle was filled with cold sterile wash medium (DMEM/F12 medium+10% FBS (fetal bovine serum)+1% Penicillin-streptomycin). • The needle was inserted into bone marrow cavity of femur and the cavity was flushed with 2-5 mL of wash medium, until the bone cavity appeared white. • Wash medium was collected in a 50 mL tube and centrifuged at 500×g for 10 minutes at room temperature. • Cells were resuspended in DMEM/F12 medium and cell count was taken. […]
# Fold change in the mRNA expression was calculated by 2^−ΔΔCt method and data was plotted using GraphPad Prism.
# TNFα = TNFα levels in LPS-stimulated human macrophages by ELISA; settings: LPS (1 μg/mL) stimulated human macrophages, supernatant after 4 hours
# Method: Assay 3: TNFα Levels in LPS-Stimulated (1 μg/ml) Human Macrophages Following Treatment with Compound M1 was Estimated by ELISA.
# Isolation of Human PBMCs (Peripheral Blood Mononuclear Cells)
# The second layer from the top, the buffy coat, was collected carefully with a serological pipette and placed in a new 50 ml centrifuge tube. The volume was made up to 50 mL with 1×PBS and centrifuged at 250×g for 10 min at room temperature. • The supernatant was discarded and red blood cells (RBCs) were resuspended with 5 mL ACK lysis buffer to facilitate RBC lysis and left at room temperature for 5 min. The tube was filled up with 1×PBS and centrifuged at 250×g for 10 min at room temperature. • The supernatant was discarded and the pellet was re-suspended in 5 mL of RPMI complete media. • Cells were counted on a haemocytometer. […] Assay Protocol • Cells were scraped and centrifuged at 250×g for 8 mins and cell concentration was determined. • 0.2×10^6 human macrophages were plated/well in a 96-well plate in RPMI CM with 50 ng/mL of Human M-CSF-1 and incubated overnight at 37° C. and 5% CO2. • Human macrophages were treated with compound M1 for 1 hour followed by addition of LPS (1 μg/mL).
# Fold change was calculated, and graphs were plotted using GraphPad Prism. TNFα cytokine levels measured in LPS stimulated human macrophages supernatants were reduced by 75% following treatment with compound M1.
# THP-1 cell lines = assay: MTT cell growth inhibition, single agent or combination, THP-1; settings: combined with azacytidine or ventoclax, 72 hrs
# Method: (§1) Assay 4: Compound M1 as a Single Agent or in Combination with Azacytidine, or Venetoclax was Determined in the AML Lines: THP-1, U937, and MV-4-11.
# (§2) Day 0 • The cells were pelleted and counted. • Cells were plated at desired density (100 μl/well) in complete media in a 96-well plate in triplicates. A column for Day “0” reading was also seeded (18-20 hrs after initial plating and before addition of the inhibitors) • Plates were incubated at 37° C. and 5% CO2. Day 1 • 10 μl of MTT (5 mg/ml) were added to the column designated for Day “0”. It was mixed well and incubated at 37° C. and 5% CO2 for 3.5 h. Cells were pelleted down at 4000 rpm for 10 minutes. • Media was aspirated out and 150 μl of DMSO were added to the cells and mixed by pipetting to dissolve the crystals • Plate was read at A560 nm and A640 nm. […] Crystals were dissolved by repeated pipetting. • The plate was read at A560 nm and A640 nm. […]
# (§3) Reference absorbance values were subtracted from test absorbance values. Day 0 values were subtracted from final day absorbance values for determining cell growth. Percent cell growth inhibitions were calculated.
# U937 cell lines = assay: MTT cell growth inhibition, single agent or combination, U937; settings: combined with azacytidine or ventoclax, 72 hrs
# Method: as §1, §2, §3
smiles,measurement,setting,value
"CC[C@H](Nc1ncnc2[nH]c(O)nc12)c1oc2ccccc2c(=O)c1-c1cccc(F)c1 [Compound M1, (S)-3-(3-fluorophenyl)-2-(1-((8-hydroxy-9H-purin-6-yl)amino)propyl)-4H-chromen-4-one]","TNFα mRNA expression, potency relative to dasatinib",TNFα mRNA,more potent than dasatinib
same,reduction of TNFα cytokine levels in supernatants,TNFα,75%
same,cell growth inhibition in combination,THP-1 cell lines,synergistic activity
same,cell growth inhibition in combination,U937 cell lines,synergistic activity

# Source: patent US12428422B2, “Purine derivatives as SIK-3 inhibitors” (RHIZEN PHARMACEUTICALS AG, priority 2020, dated 2025)
